Patent US4227003A, “Bromo-A-23187 derivatives” (Eli Lilly and Company, priority 1978, dated 1980)

Legend:
[1] = Acute toxicity in mice, intraperitoneal; conditions: mouse, in vivo, ip
Description: The compounds of the present invention are, in general, less toxic than the parent antibiotic. Table II summarizes the acute toxicities of representative compounds in mice, expressed as LD50, when the compounds are administered intraperitoneally.

[2] = target: cation transport ATPase in liver mitochondria; experiment: In vitro inhibition of cation transport ATPase in liver mitochondria; format: biochemical
From the text: In yet another aspect, the compounds of this invention are active as inhibitors of the enzyme ATPase. ATPase, an alkali-metal-sensitive enzyme found in cell membranes, is involved in the energy necessary for active transport. "Active transport" refers to the energy-requiring series of operations whereby intracellular and extracellular fluids maintain their compositions. Inhibitors of ATPase reduce the energy required for active transport. Table III summarizes the results of in vitro tests measuring inhibition of cation transport ATPase in liver mitochondria [measured as half effective concentration (Ic50) in mcg/ml].

[3] = tested on: Staphylococcus aureus (H-Heatley strain, NRRL B-314); experiment: Bioassay for antibacterial activity; format: cell-based
From the text: The compounds of this invention are useful antibacterial agents. In this aspect, these compounds may be used in the same manner in which the parent antibiotic is used, as described in U.S. Pat. No. 3,923,823. A bioassay for the antibacterial activity of A-23187 has been described by J. E. Westhead in Antimicrobial Agents and Chemotherapy 11 (5), 916-918 (1977). The test organism for this bioassay is Staphylococcus aureus (H-Heatley strain, NRRL B-314).

[4] = cited from earlier work
[5] = Pfeiffer and Lardy, Biochemistry 15, 935 (1976)

Compound: CNc1ccc2oc(CC3OC4(CCC3C)OC(C(C)C(=O)c3cc(Br)c(Br)[nH]3)C(C)CC4C)nc2c1C(=O)O (stereo not drawn) [23,24-dibromo-A-23187 (free acid), 5-(methylamino)-2-[[3β,9α,11β-trimethyl-8-[1α-methyl-2-oxo-2-(4,5-dibromo-1H-pyrrol-2-yl)ethyl]-1,7-dioxaspiro[5.5]undec-2β-yl]methyl]-4-benzoxazolecarboxylic acid]
- LD50 [1]: 79.8 mg/kg
- half effective concentration (Ic50), ATPase induced by CaCl2 [2]: 0.8 µg/mL
- half effective concentration (Ic50), ATPase induced by K^+ monazomycin [2]: 0.1 µg/mL
- Bioassay [3]: 1105 µg/mL

Compound: CNc1ccc2oc(CC3OC4(CCC3C)OC(C(C)C(=O)c3cc(Br)c[nH]3)C(C)CC4C)nc2c1C(=O)O (stereo not drawn) [23-bromo-A-23187 (free acid), 5-(methylamino)-2-[[3β,9α,11β-trimethyl-8-[1α-methyl-2-oxo-2-(4-bromo-1H-pyrrol-2-yl)ethyl]-1,7-dioxaspiro[5.5]undec-2β-yl]methyl]-4-benzoxazolecarboxylic acid]
- LD50 [1]: 23.7 mg/kg
- half effective concentration (Ic50), ATPase induced by CaCl2 [2]: > 10 µg/mL
- half effective concentration (Ic50), ATPase induced by K^+ monazomycin [2]: 0.1 µg/mL
- Bioassay [3]: 1766 µg/mL

Compound: CNc1ccc2oc(CC3OC4(CCC3C)OC(C(C)C(=O)c3ccc[nH]3)C(C)CC4C)nc2c1C(=O)O (centres unmarked) [A-23187 (free acid), reference compound]
- discrimination for divalent over monovalent cations [4, 5]: not complete
- transport of Mg^2+ versus Ca^2+ [4, 5]: transports Mg^2+ with a similar efficiency to Ca^2+
- selectivity for transport of divalent over monovalent cations ([4]; background, among approximately 100 known ionophores): substantially selective for the transport of divalent over monovalent cations
- half effective concentration (Ic50), ATPase induced by CaCl2 [2]: 0.5 µg/mL
- half effective concentration (Ic50), ATPase induced by K^+ monazomycin [2]: 0.5 µg/mL
- Bioassay [3]: 1060 µg/mL
